Consider 21 molecules from US20210253568A1, “AZAINDOLE DERIVATIVES AS RHO-KINASE INHIBITORS” (CHIESI FARMACEUTICI S.p.A., priority 2018, published 2021).

One assay deals with ROCK 1 (Homo sapiens, UniProt Q13464). Put plainly: In vitro Rho kinase inhibitory activity assay (ADP-Glo), Rho kinase 1. The assay is classed as biochemical. The conditions noted are these: Ki by Cheng-Prusoff from IC50; 10 μM ATP, 25° C., expressed as range of activity. The procedure:
(§1) The effectiveness of compounds of the present invention to inhibit Rho kinase activity can be determined in a 10 μl assay containing 40 mM Tris pH7.5, 20 mM MgCl2 0.1 mg/mi BSA, 50 μM DTT and 2.5 μM peptide substrate (Myelin Basic Protein) using an ADP-Glo kit (Promega). Compounds were dissolved in DMSO such that the final concentration of DMSO was 1% in the assay. All reactions/incubations are performed at 25° C. Compound (2 ul) and either Rho kinase 1 or 2 (4 μl) were mixed and incubated for 30 mins. Reactions were initiated by addition of ATP (4 μl) such that the final concentration of ATP in the assay was 10 μM. After a 1 hour incubation 10 μl of ADP-Glo Reagent was added and after a further 45 minute incubation 20 ul of Kinase Detection Buffer was added and the mixture incubated for a further 30 minutes. The luminescent signal was measured on a luminometer. […] Compounds were tested in dose-response format and the inhibition of kinase activity was calculated at each concentration of compound. To determine the IC50 (concentration of compound required to inhibit 50% of the enzyme activity) data were fit to a plot of % inhibition vs Log10 compound concentration using a sigmoidal fit with a variable slope and fixing the maximum to 100% and the minimum to 0%. To determine the Ki values the Cheng-Prusoff equation was utilized (Ki=IC50/(1+[S]/Km).
(ADP-Glo turns the ADP formed in a reaction into a luminescent signal.)

Another assay deals with ROCK 2 (Homo sapiens, UniProt O75116). Put plainly: In vitro Rho kinase inhibitory activity assay (ADP-Glo), Rho kinase 2. The conditions noted are these: Ki by Cheng-Prusoff from IC50; 10 μM ATP, 25° C., expressed as range of activity. It counts as biochemical. The procedure: as §1
Chain of ROCK 2 (O75116 whole entry): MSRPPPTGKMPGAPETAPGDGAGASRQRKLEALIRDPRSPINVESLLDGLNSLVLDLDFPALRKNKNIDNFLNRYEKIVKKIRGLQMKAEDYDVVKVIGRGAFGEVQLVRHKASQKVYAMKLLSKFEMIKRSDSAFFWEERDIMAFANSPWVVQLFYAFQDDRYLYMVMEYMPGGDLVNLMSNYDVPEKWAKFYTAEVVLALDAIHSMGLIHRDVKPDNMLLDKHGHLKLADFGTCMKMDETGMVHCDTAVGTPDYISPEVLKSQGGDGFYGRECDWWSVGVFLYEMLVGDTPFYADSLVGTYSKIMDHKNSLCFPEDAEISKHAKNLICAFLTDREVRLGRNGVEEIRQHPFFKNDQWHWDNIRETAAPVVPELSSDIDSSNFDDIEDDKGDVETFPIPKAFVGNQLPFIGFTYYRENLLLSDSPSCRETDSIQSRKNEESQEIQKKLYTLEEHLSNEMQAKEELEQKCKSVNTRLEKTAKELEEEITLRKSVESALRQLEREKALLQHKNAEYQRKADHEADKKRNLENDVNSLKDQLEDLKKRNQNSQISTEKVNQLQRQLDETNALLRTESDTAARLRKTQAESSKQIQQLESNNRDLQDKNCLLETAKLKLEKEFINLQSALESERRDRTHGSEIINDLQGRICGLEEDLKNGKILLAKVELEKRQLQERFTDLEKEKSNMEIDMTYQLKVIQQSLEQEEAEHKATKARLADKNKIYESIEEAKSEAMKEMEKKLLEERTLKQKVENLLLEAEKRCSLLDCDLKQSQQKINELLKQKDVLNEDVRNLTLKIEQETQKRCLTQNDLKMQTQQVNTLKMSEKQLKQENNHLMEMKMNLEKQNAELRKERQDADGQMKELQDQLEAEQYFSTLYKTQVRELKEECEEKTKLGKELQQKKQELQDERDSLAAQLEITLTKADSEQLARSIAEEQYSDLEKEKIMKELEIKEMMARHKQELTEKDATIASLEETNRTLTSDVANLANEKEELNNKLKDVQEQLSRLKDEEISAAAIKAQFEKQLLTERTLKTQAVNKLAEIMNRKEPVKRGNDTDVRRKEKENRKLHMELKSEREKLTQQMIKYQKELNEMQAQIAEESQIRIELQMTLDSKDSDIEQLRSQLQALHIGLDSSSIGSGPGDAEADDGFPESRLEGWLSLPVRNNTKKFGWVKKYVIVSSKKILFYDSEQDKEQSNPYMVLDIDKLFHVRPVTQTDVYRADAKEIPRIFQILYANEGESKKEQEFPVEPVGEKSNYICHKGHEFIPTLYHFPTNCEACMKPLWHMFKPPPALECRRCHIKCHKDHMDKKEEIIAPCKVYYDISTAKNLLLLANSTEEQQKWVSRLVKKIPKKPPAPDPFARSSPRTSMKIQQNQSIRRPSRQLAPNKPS

Chain of ROCK 1 (Q13464 whole entry): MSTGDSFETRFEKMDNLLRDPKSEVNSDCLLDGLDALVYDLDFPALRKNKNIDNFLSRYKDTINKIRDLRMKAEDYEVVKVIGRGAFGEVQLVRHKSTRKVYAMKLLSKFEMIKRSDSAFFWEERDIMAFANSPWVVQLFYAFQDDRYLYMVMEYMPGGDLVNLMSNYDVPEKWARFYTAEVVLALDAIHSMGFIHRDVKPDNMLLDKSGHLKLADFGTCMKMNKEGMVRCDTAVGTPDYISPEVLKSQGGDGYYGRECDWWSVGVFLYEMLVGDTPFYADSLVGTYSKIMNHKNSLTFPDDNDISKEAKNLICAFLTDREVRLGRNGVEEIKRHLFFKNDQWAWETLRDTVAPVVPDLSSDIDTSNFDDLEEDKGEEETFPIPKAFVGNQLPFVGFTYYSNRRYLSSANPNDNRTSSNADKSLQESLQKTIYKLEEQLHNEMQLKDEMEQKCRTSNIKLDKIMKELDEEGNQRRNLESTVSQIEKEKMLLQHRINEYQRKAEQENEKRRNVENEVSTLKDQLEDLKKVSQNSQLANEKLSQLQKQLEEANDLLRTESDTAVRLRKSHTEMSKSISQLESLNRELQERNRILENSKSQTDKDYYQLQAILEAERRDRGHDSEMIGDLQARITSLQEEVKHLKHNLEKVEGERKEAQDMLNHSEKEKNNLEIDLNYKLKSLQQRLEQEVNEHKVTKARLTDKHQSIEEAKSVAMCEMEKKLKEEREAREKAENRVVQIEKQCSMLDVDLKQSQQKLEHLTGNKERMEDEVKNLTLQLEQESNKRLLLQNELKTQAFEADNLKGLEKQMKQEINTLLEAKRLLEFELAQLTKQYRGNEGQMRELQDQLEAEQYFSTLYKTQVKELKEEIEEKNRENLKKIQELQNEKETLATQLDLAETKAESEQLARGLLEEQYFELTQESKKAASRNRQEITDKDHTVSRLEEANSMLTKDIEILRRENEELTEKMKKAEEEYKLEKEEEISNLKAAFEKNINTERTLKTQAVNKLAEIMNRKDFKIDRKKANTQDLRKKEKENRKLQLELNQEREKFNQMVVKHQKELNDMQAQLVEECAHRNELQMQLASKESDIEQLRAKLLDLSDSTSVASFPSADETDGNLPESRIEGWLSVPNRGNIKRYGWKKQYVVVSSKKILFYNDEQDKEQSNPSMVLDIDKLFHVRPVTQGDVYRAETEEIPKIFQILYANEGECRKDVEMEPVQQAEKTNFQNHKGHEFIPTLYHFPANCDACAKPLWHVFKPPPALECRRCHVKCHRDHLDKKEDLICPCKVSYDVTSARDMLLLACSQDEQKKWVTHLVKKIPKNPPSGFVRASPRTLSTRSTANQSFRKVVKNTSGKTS

As for `c1cc(-c2c[nH]c3nccc(Oc4ccc5c(c4)CNCC5)c23)ccn1` [Example 1, 7-((3-(pyridin-4-yl)-1H-pyrrolo[2,3-b]pyridin-4-yl)oxy)-1,2,3,4-tetrahydroisoquinoline], the Ki on ROCK 1 and on ROCK 2 was less than 3 nM throughout.
In the case of `NCc1ccc(Oc2ccnc3[nH]cc(-c4cncc(OCc5ccccc5)c4)c23)cc1` [Example 2, (4-((3-(5-(benzyloxy)pyridin-3-yl)-1H-pyrrolo[2,3-b]pyridin-4-yl)oxy)phenyl)methanamine], the Ki on ROCK 1 and at ROCK 2 was more than 30 nM each time.
Take `NCc1ccc(Oc2ccnc3[nH]cc(-c4cccc(OCc5ccccc5)c4)c23)cc1` [Example 3, (4-((3-(3-(benzyloxy)phenyl)-1H-pyrrolo[2,3-b]pyridin-4-yl)oxy)phenyl)methanamine]: the Ki on ROCK 1 and at ROCK 2 was more than 30 nM in each case.
Turning to `Cc1ccc(S(=O)(=O)CCNc2cc(-c3c[nH]c4nccc(Oc5c(F)cc(CN)cc5F)c34)ncn2)cc1` [Example 4, 6-(4-(4-(aminomethyl)-2,6-difluorophenoxy)-1H-pyrrolo[2,3-b]pyridin-3-yl)-N-(2-tosylethyl)pyrimidin-4-amine], the Ki on ROCK 1 and at ROCK 2 was less than 3 nM each time.
`NCc1cc(F)c(Oc2ncnc3[nH]cc(-c4ccnc(NCc5ccccc5)c4)c23)c(F)c1` [Example 5, 4-(4-(4-(aminomethyl)-2,6-difluorophenoxy)-7H-pyrrolo[2,3-d]pyrimidin-5-yl)-N-benzylpyridin-2-amine]: the Ki on ROCK 1 and on ROCK 2 was less than 3 nM in each case.
Regarding `Fc1cc2c(cc1Oc1ncnc3[nH]cc(-c4ccnc(NCc5ccccc5)c4)c13)CNCC2` [Example 6, N-benzyl-4-(4-((6-fluoro-1,2,3,4-tetrahydroisoquinolin-7-yl)oxy)-7H-pyrrolo[2,3-d]pyrimidin-5-yl)pyridin-2-amine], the Ki on ROCK 1 is 3 to 30 nM; at ROCK 2, less than 3 nM.
For `NCc1cc(F)c(Oc2ccnc3[nH]cc(-c4ccnc(NCc5cccnc5)c4)c23)c(F)c1` [Example 7, 4-(4-(4-(aminomethyl)-2,6-difluorophenoxy)-1H-pyrrolo[2,3-b]pyridin-3-yl)-N-(pyridin-3-ylmethyl)pyridin-2-amine] the same measures were less than 3 nM and less than 3 nM.
For `NCc1cc(F)c(Oc2ccnc3[nH]cc(-c4ccnc(NCC5CC5)c4)c23)c(F)c1` [Example 8, 4-(4-(4-(aminomethyl)-2,6-difluorophenoxy)-1H-pyrrolo[2,3-b]pyridin-3-yl)-N-(cyclopropylmethyl)pyridin-2-amine] the same measures were less than 3 nM and less than 3 nM.
Turning to `c1ccc(CNc2cc(-c3c[nH]c4nccc(Oc5ccc6c(c5)CNCC6)c34)on2)cc1` [Example 9, N-benzyl-5-(4-((1,2,3,4-tetrahydroisoquinolin-7-yl)oxy)-1H-pyrrolo[2,3-b]pyridin-3-yl)isoxazol-3-amine], the Ki on ROCK 1 was 3 to 30 nM; on ROCK 2 it was less than 3 nM.
For `O=C(NC1CC1)C1CCN(c2cc(-c3c[nH]c4nccc(Oc5ccc6c(c5)CNCC6)c34)ccn2)C1` (stereo not drawn) [Example 10, N-cyclopropyl-1-(4-(4-((1,2,3,4-tetrahydroisoquinolin-7-yl)oxy)-1H-pyrrolo[2,3-b]pyridin-3-yl)pyridin-2-yl)pyrrolidine-3-carboxamide] the same measures were less than 3 nM and less than 3 nM.
For `NCc1cc(F)c(Oc2ccnc3[nH]cc(-c4ccnc(NC(=O)C5CC5)c4)c23)c(F)c1` [Example 11, N-(4-(4-(4-(aminomethyl)-2,6-difluorophenoxy)-1H-pyrrolo[2,3-b]pyridin-3-yl)pyridin-2-yl)cyclopropanecarboxamide], in that order: less than 3 nM and less than 3 nM.
For `O=C(Cn1cc(-c2c[nH]c3nccc(Oc4ccc5c(c4)CNCC5)c23)nn1)NCc1ccccc1` [Example 12, N-benzyl-2-(4-(4-((1,2,3,4-tetrahydroisoquinolin-7-yl)oxy)-1H-pyrrolo[2,3-b]pyridin-3-yl)-1H-1,2,3-triazol-1-yl)acetamide], the values for the Ki on ROCK 1 and on ROCK 2 were 3 to 30 nM and less than 3 nM, respectively.
In the case of `O=C(NCc1ccccc1)c1cc(-c2c[nH]c3nccc(Oc4ccc5c(c4)CNCC5)c23)on1` [Example 13, N-benzyl-5-(4-((1,2,3,4-tetrahydroisoquinolin-7-yl)oxy)-1H-pyrrolo[2,3-b]pyridin-3-yl)isoxazole-3-carboxamide], the results for the Ki at ROCK 1 and on ROCK 2 were 3 to 30 nM and less than 3 nM, respectively.
For `O=C(Cc1ccccc1)Nc1nnc(-c2c[nH]c3nccc(Oc4ccc5c(c4)CNCC5)c23)o1` [Example 14, 2-phenyl-N-(5-(4-((1,2,3,4-tetrahydroisoquinolin-7-yl)oxy)-1H-pyrrolo[2,3-b]pyridin-3-yl)-1,3,4-oxadiazol-2-yl)acetamide] the same measures were less than 3 nM and less than 3 nM.
Regarding `NCc1ccc(Oc2ccnc3[nH]cc(-c4ccnc(NCc5ccccc5)c4)c23)cc1` [Example 15, 4-(4-(4-(aminomethyl)phenoxy)-1H-pyrrolo[2,3-b]pyridin-3-yl)-N-benzylpyridin-2-amine], the Ki is 3 to 30 nM on ROCK 1 and less than 3 nM at ROCK 2.
For `c1cncc(CNc2cc(-c3c[nH]c4nccc(Oc5ccc6c(c5)CNCC6)c34)ccn2)c1` [Example 16, N-(pyridin-3-ylmethyl)-4-(4-((1,2,3,4-tetrahydroisoquinolin-7-yl)oxy)-1H-pyrrolo[2,3-b]pyridin-3-yl)pyridin-2-amine] the same measures were less than 3 nM and less than 3 nM.
In the case of `c1cc(-c2c[nH]c3nccc(Oc4ccc5c(c4)CNCC5)c23)cc(N2CCOCC2)n1` [Example 17, 4-(4-(4-((1,2,3,4-tetrahydroisoquinolin-7-yl)oxy)-1H-pyrrolo[2,3-b]pyridin-3-yl)pyridin-2-yl)morpholine], the Ki on ROCK 1 and at ROCK 2 was less than 3 nM in each case.
Consider `c1cc(-c2c[nH]c3nccc(Oc4ccc5c(c4)CNCC5)c23)cc(NC[C@@H]2CCCO2)n1` [Example 18, (S)-N-((tetrahydrofuran-2-yl)methyl)-4-(4-((1,2,3,4-tetrahydroisoquinolin-7-yl)oxy)-1H-pyrrolo[2,3-b]pyridin-3-yl)pyridin-2-amine], for which the Ki on ROCK 1 and at ROCK 2 was less than 3 nM throughout.
As to `c1cc(-c2c[nH]c3nccc(Oc4ccc5c(c4)CNCC5)c23)cc(NC[C@H]2CCCO2)n1` [Example 19, (R)-N-((tetrahydrofuran-2-yl)methyl)-4-(4-((1,2,3,4-tetrahydroisoquinolin-7-yl)oxy)-1H-pyrrolo[2,3-b]pyridin-3-yl)pyridin-2-amine], the Ki at ROCK 1 and at ROCK 2 was less than 3 nM throughout.
Regarding `COCCNc1cc(-c2c[nH]c3nccc(Oc4ccc5c(c4)CNCC5)c23)ccn1` [Example 20, N-(2-methoxyethyl)-4-(4-((1,2,3,4-tetrahydroisoquinolin-7-yl)oxy)-1H-pyrrolo[2,3-b]pyridin-3-yl)pyridin-2-amine], the Ki at ROCK 1 is 3 to 30 nM; on ROCK 2, less than 3 nM.
For `Cn1cc(-c2c[nH]c3nccc(Oc4ccc5c(c4)CNCC5)c23)cn1` [Example 21, 7-((3-(1-methyl-1H-pyrazol-4-yl)-1H-pyrrolo[2,3-b]pyridin-4-yl)oxy)-1,2,3,4-tetrahydroisoquinoline], in that order: less than 3 nM and less than 3 nM.

The term Ki denotes the equilibrium dissociation constant of an inhibitor or competing ligand from its target. A higher Ki goes with a looser hold on the target.
